Results from Sander's compilation of Henry's law constants (doi:10.1016/s0021-9673(00)91567-x).

experiment: Henry solubility constant Hcp at 298.15 K (mol/(m3 Pa)); settings: reference: Przyjazny et al. (1983)

| Henry solubility constant Hcp | SMILES |
| --- | --- |
| 0.0044 | c1ccsc1 [thiophene] |
| 0.0041 | Cc1cccs1 [2-methylthiophene] |
| 0.0056 | CSC [dimethyl sulfide] |
| 0.0022 | CCCCS [1-butanethiol] |
| 0.0063 | CCSSCC [diethyl disulfide] |
| 0.003 | CC(C)SC(C)C [di-(2-propyl)-sulfide] |
| 0.0054 | CCSCC [diethyl sulfide] |
| 0.0028 | CCS [ethanethiol] |
| 0.0033 | CCCSCCC [dipropyl sulfide] |

| SMILES | Henry solubility constant Hcp |
| --- | --- |
| CS [methanethiol] | 0.0039 |
| CCCS [1-propanethiol] | 0.0024 |
